The results in this text go back to patent US20140271920A1, “SKIN OINTMENT FORMULATION” (priority 2013, published 2014).

This assay has as its system person's skin. Put plainly: Experimentation with ingredient concentrations in the ointment formulation applied to a person's skin. The conditions noted are these: Zinc Oxide amount lesser than 4.70% of the formulation. The assay is classed as in vivo, human. The text has this:
The ointment formulation includes an occlusive and nourishing ingredient in an amount configured to reduce moisture evaporation from and seal the skin. The specific occlusive and nourishing ingredient in the subject ointment formulation may be Lanolin. Lanolin is additionally selected for its ability to supply the skin with a majority of the 23 proteinogenic, i.e., protein-building, amino acids, which combine into peptide chains to form the building blocks of a vast array of proteins. In an exemplary 126.0 ml volume sample of the ointment formulation, the specific volume of the Lanolin ingredient was 103.53 ml, or 82.17%. Although Lanolin made up 82.17% of the exemplary sample, the allowable range of the Lanolin ingredient in the ointment formulation is approximately 74-85%.
The ointment formulation having the specific disclosed volume of Lanolin is for a moderate to severe condition of the skin. Although the amount of Lanolin may be increased for more severe conditions, the disclosed specific concentration of 82.17% is near the maximum that may be used while maintaining the necessary amounts of the other ingredients. Accordingly, as the volume of Lanolin is adjusted for severity of the particular skin condition, the amounts of other ingredients to be described with specificity below would have to be adjusted accordingly. […]

For the compound `[O]=[Zn]` [Zinc Oxide], the effectiveness result is on record as “has not shown to be effective”.
